Reference: the NIST ThermoML archive (doi:10.1016/j.jct.2014.10.014)

Assay: mn = molality of the nth substance listed, in mol/kg
Settings: 100 kPa, Liquid, Alternating current cell with electrodes

C[C@H](CCC(=O)[O-])[C@H]1CC[C@H]2[C@@H]3[C@H](O)C[C@@H]4C[C@H](O)CC[C@]4(C)[C@H]3C[C@H](O)[C@]12C.[Na+] [sodium cholate] + O
electrical conductivity [S/m]
Settings	293.15 K	298.15 K	303.15 K	308.15 K	313.15 K	318.15 K
m1 = 0.001	0.0066	0.007	0.005	0.007	0.0075	0.0115
m1 = 0.002	0.0129	0.014	0.0115	0.014	0.014	0.0175
m1 = 0.003	0.019	0.0204	0.018	0.02	0.02	0.0235
m1 = 0.004	0.0254	0.0267	0.0242	0.0263	0.0265	0.0305
m1 = 0.005	0.031	0.0326	0.0308	0.0332	0.0332	0.0369
m1 = 0.006	0.0378	0.0386	0.0373	0.0397	0.0395	0.043
m1 = 0.007	0.0434	0.0442	0.0439	0.0454	0.0466	0.0497
m1 = 0.008	0.0503	0.0498	0.0503	0.0524	0.0533	0.0565
m1 = 0.009	0.0558	0.0562	0.057	0.0584	0.06	0.0633
m1 = 0.01	0.0628	0.063	0.0635	0.0653	0.0668	0.0705
m1 = 0.011	0.0689	0.0687	0.07	0.0735	0.0745	0.0779
m1 = 0.012	0.0754	0.0753	0.076	0.0798	0.0815	0.0855
m1 = 0.013	0.0827	0.0825	0.082	0.0861	0.0885	0.093
m1 = 0.014	0.0881	0.088	0.0873	0.0911	0.0939	0.0985
m1 = 0.015	0.0929	0.0928	0.093	0.0967	0.0995	0.104
m1 = 0.016	0.0985	0.097	0.0981	0.102	0.104	0.111
m1 = 0.017	0.103	0.101	0.103	0.108	0.11	0.117
m1 = 0.018	0.107	0.105	0.108	0.113	0.115	0.122
m1 = 0.019	0.111	0.109	0.113	0.118	0.12	0.127
m1 = 0.02	0.115	0.112	0.118	0.123	0.126	0.132

C[C@H](CCC(=O)[O-])[C@H]1CC[C@H]2[C@@H]3CC[C@@H]4C[C@H](O)CC[C@]4(C)[C@H]3C[C@H](O)[C@]12C.[Na+] [sodium deoxycholate] + O
electrical conductivity [S/m]
Settings	293.15 K	298.15 K	303.15 K	308.15 K	313.15 K	318.15 K
m1 = 0.0005	0.003	0.0035	0.004	0.0035	0.0035	0.004
m1 = 0.001	0.0065	0.0065	0.007	0.0065	0.0065	0.007
m1 = 0.0015	0.0095	0.0095	0.01	0.0095	0.01	0.01
m1 = 0.002	0.0125	0.0125	0.013	0.0124	0.0128	0.013
m1 = 0.0025	0.0155	0.0155	0.016	0.0153	0.016	0.016
m1 = 0.003	0.0185	0.0182	0.0191	0.0185	0.019	0.019
m1 = 0.0035	0.021	0.0213	0.0218	0.022	0.022	0.022
m1 = 0.004	0.0242	0.0243	0.0248	0.025	0.0245	0.025
m1 = 0.0045	0.027	0.0275	0.0274	0.028	0.028	0.028
m1 = 0.005	0.03	0.0305	0.0305	0.031	0.0305	0.031
m1 = 0.0055	0.033	0.0335	0.0335	0.0335	0.0335	0.034
m1 = 0.006	0.0355	0.036	0.0358	0.0365	0.0365	0.037
m1 = 0.0065	0.038	0.0385	0.038	0.0385	0.0385	0.04
m1 = 0.007	0.0399	0.0405	0.0405	0.041	0.0405	0.0425
m1 = 0.0075	0.042	0.0425	0.043	0.0435	0.0425	0.045
m1 = 0.008	0.044	0.0445	0.0455	0.0455	0.045	0.0475
m1 = 0.0085	0.046	0.0465	0.048	0.048	0.0475	0.05
m1 = 0.009	0.048	0.0485	0.0499	0.05	0.0499	0.0525
m1 = 0.0095	0.05	0.051	0.052	0.0525	0.0519	0.055
m1 = 0.01	0.0518	0.053	0.054	0.055	0.0539	0.0575
